The target in the first experiment is Aminopeptidase N (Sus scrofa) (UniProt P15145). Kind of experiment: Inhibition of porcine kidney microsomal LAP using l-leucine-7-amido-4-methylcoumarin as substrate incubated for 10 hrs measured every 6 mins by fluorescence assay.
Sequence of Aminopeptidase N (Sus scrofa) (P15145 whole entry, looked up): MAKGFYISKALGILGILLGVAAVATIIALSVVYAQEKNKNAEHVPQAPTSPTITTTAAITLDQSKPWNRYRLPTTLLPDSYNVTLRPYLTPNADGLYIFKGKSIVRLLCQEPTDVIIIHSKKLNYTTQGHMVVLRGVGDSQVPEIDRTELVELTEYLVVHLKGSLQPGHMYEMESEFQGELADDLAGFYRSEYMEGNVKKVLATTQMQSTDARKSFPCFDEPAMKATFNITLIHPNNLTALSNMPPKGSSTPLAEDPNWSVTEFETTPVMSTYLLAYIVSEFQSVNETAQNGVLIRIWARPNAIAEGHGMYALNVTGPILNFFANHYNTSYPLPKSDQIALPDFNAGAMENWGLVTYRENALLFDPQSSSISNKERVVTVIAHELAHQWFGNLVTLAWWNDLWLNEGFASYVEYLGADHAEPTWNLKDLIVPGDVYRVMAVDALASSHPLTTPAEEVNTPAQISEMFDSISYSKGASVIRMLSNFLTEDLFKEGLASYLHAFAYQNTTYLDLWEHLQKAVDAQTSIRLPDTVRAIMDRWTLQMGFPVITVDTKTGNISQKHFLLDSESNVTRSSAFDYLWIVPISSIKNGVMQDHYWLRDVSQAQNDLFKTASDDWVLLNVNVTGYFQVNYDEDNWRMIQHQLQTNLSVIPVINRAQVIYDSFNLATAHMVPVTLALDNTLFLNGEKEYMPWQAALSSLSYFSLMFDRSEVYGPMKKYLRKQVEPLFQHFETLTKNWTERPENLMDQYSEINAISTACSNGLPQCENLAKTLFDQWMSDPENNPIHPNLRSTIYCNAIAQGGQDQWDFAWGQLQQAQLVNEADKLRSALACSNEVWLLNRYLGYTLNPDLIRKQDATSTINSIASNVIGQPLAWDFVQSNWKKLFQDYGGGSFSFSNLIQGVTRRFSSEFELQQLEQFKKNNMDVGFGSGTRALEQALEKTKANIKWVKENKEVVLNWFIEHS
On to `CCOC(=O)C1(C(=O)OCC)Cc2cc(OCc3ccccc3)cc(OCc3ccccc3)c2C=N1`, for which inhibition was half-maximal at 33.6 µM (IC50). That is a double-digit micromolar value.

Another experiment has the same target. Kind of experiment: Inhibition of porcine kidney microsomal LAP using l-leucine-7-amido-4-methylcoumarin as substrate incubated for 60 mins measured every 3 mins by fluorescence assay.
`O=C(O)C1CCc2cc(O)c(O)cc2C=N1` (configuration not stated) gave an IC50 of 163 µM.
`O=C(O)C1Cc2cc(O)c(O)c(Br)c2C=N1` (configuration not stated): half-maximal inhibition (IC50) required 68.3 µM.
The compound `O=C(O)C1Cc2cc(O)c(O)c(O)c2C=N1` (configuration not stated) had an IC50 of 781 µM.
Compound `O=C(O)C1Cc2cc(O)c(O)cc2C=N1` (configuration not stated) yielded a 50% inhibitory concentration (IC50) of 111 µM. Against the preceding compound, the IC50 is about 7-fold lower.
`COc1cc2c(cc1OC)CCC(C(=O)OCc1ccccc1)(C(=O)OCc1ccccc1)N=C2` showed an IC50 of 1050 µM.
The compound `O=C(O)C1Cc2cc(O)c(Br)c(O)c2C=N1` (configuration not stated) returned an IC50 of 76.8 µM. This IC50 is about 14-fold lower than that of the compound before.
In turn, `CCOC(=O)C1(C(=O)OCC)Cc2cc(OCc3ccccc3)cc(OCc3ccccc3)c2C=N1` showed an IC50 of 16.5 µM.
With `O=C(O)C1Cc2c(O)c(O)cc(Br)c2C=N1` (configuration not stated), the IC50 was determined as 409 µM. Compared with the last compound, the IC50 is about 25-fold higher.
On to `O=C(O)C1Cc2cc(O)c(O)c(I)c2C=N1` (configuration not stated), for which it took 63.6 µM to reach half-maximal inhibition (IC50).
Take `O=C(O)C1Cc2cc(O)cc(O)c2C=N1` (configuration not stated): the IC50 was 379 µM.
The compound `O=C(O)C1Cc2cc(O)c(I)cc2C=N1` (configuration not stated) had an IC50 of 69.3 µM.

The IC50 is the concentration at which inhibition is half-maximal. A higher IC50 goes with lower potency.

The record behind these values is BindingDB's records for doi:10.1016/j.bmc.2016.08.054 (National Institute of Public Health-National Institute of …, 2016).
